Laboratory results from ChEMBL document CHEMBL3112559, “Photodynamic inactivation of bioluminescent Escherichia coli by neutral and cationic pyrrolidine-fused chlorins and isobacteriochlorins” (Bioorg Med Chem Lett, 2014).
Active and inactive are the calls of the source. No cut-off for these calls is given here.

Assays:
Escherichia coli [1] = assay: Dark toxicity in recombinant Escherichia coli transfected with Vibrio fischeri lux operon at 20 uM after 10 mins by luminometry; format: organism-based; conditions: in vivo
Escherichia coli [2] = assay: Antibacterial activity against Escherichia coli transfected with Vibrio fischeri lux operon assessed as log reduction of bioluminescence at 5 uM incubated for 10 mins in dark followed by 43.2 J cm'-2 white light irradiation for 180 mins by luminometry relative to control; format: functional
Escherichia coli [3] = assay: Antibacterial activity against Escherichia coli transfected with Vibrio fischeri lux operon assessed as log reduction of bioluminescence at 20 uM incubated for 10 mins in dark followed by 36 J cm'-2 white light irradiation for 150 mins by luminometry relative to control; format: functional
Escherichia coli [4] = assay: Dark toxicity in recombinant Escherichia coli transfected with Vibrio fischeri lux operon at 5 uM after 10 mins by luminometry; format: organism-based; conditions: in vivo
Escherichia coli [5] = assay: Antibacterial activity against Escherichia coli assessed as log reduction of bioluminescence at 1 uM incubated for 30 mins followed by 10 J cm'-2 laser light irradiation relative to control; format: functional
Staphylococcus aureus = assay: Antibacterial activity against Staphylococcus aureus assessed as log reduction of bioluminescence at 1 uM incubated for 30 mins followed by 10 J cm'-2 laser light irradiation relative to control; format: functional
Escherichia coli [6] = assay: Antibacterial activity against Escherichia coli transfected with Vibrio fischeri lux operon assessed as log reduction of bioluminescence at 20 uM incubated for 10 mins in dark followed by 43.2 J cm'-2 white light irradiation for 180 mins by luminometry relative to control; format: functional

| SMILES | Activity (Escherichia coli [1]) | FC (Escherichia coli [2]) | further results |
| --- | --- | --- | --- |
| C[N+]1(C)CC2c3nc(c(-c4c(F)c(F)c(F)c(F)c4F)c4ccc([nH]4)c(-c4c(F)c(F)c(F)c(F)c4F)c4nc(c(-c5c(F)c(F)c(F)c(F)c5F)c5[nH]c(c3-c3c(F)c(F)c(F)c(F)c3F)C3C[N+](C)(C)CC53)C=C4)C2C1.[I-].[I-] (configuration not stated) | Non-toxic | >5 | FC (Escherichia coli [3]): 6.1 |
| CN1CC2c3nc(c(-c4c(F)c(F)c(F)c(F)c4F)c4ccc([nH]4)c(-c4c(F)c(F)c(F)c(F)c4F)c4nc(c(-c5c(F)c(F)c(F)c(F)c5F)c5ccc([nH]5)c3-c3c(F)c(F)c(F)c(F)c3F)C=C4)C2C1 (configuration not stated) |  | 0.57 | Activity (Escherichia coli [4]): Non-toxic |
| CC1(C)Cc2cc3[nH]c(cc4nc(cc5[nH]c(cc1n2)cc5C(=O)NCCC[N+](C)(CCC[N+](C)(C)C)CCC[N+](C)(C)C)CC4(C)C)cc3C(=O)NCCC[N+](C)(CCC[N+](C)(C)C)CCC[N+](C)(C)C |  |  | FC (Escherichia coli [5]): 6; FC (Staphylococcus aureus): 6 |
| C[N+]1(C)CC2c3nc(c(-c4c(F)c(F)c(F)c(F)c4F)c4ccc([nH]4)c(-c4c(F)c(F)c(F)c(F)c4F)c4nc(c(-c5c(F)c(F)c(F)c(F)c5F)c5ccc([nH]5)c3-c3c(F)c(F)c(F)c(F)c3F)C=C4)C2C1.[I-] (configuration not stated) | Non-toxic | 0.77 | Activity (Escherichia coli [3]): Active |
| CN1CC2c3nc(c(-c4c(F)c(F)c(F)c(F)c4F)c4ccc([nH]4)c(-c4c(F)c(F)c(F)c(F)c4F)c4nc(c(-c5c(F)c(F)c(F)c(F)c5F)c5[nH]c(c3-c3c(F)c(F)c(F)c(F)c3F)C3CN(C)CC53)C=C4)C2C1 (configuration not stated) | Non-toxic |  | FC (Escherichia coli [6]): 0.24 |
